Test results from ChEMBL document CHEMBL1201862, “PubChem BioAssay data set” (2004).
Active and inactive are the calls of the source.

Assays:
[1] = target: T1, RNA-binding protein pos-1 (Caenorhabditis elegans, UniProt G5EF15); test: disruptors of C. elegans POS-1 RNA interaction – biochemical, fluorescence polarization, dose response (AID 1964);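 also: purified POS-1 fused to maltose binding protein made in E. coli; potency of compounds blocking POS-1 binding to fluorescent RNA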
T1 sequence (G5EF15 whole entry): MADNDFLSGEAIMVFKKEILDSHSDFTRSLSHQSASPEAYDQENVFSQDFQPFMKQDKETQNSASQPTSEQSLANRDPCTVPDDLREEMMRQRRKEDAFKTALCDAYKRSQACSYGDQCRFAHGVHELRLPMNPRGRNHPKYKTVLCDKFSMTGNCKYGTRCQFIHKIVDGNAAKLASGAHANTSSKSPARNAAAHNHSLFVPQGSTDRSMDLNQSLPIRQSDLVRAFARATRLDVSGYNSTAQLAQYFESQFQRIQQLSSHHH

[2] = target: T2, Zinc finger protein mex-5 (Caenorhabditis elegans, UniProt Q9XUB2); test: potency of MEX-5 RNA-binding blockers – biochemical, C. elegans, fluorescence polarization, dose response (AID 1960)
T2 sequence (Q9XUB2 whole entry): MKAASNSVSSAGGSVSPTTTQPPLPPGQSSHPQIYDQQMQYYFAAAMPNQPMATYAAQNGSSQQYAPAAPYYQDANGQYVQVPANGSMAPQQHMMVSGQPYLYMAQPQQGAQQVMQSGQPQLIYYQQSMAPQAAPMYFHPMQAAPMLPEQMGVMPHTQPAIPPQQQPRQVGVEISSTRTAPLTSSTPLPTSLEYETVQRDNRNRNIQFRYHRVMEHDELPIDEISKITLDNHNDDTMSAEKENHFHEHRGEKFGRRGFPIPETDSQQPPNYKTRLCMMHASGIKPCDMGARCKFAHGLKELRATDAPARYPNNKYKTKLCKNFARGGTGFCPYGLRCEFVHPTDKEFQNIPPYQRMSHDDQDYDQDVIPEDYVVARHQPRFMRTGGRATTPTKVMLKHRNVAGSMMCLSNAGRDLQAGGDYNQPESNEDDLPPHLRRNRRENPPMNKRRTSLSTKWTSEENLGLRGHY

[3] = Trypanosoma cruzi growth suppression in host cells – NIH3T3 host cells, beta-gal luminescence, confirmation (AID 2044); format: functional, cell-based;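 also: intracellular parasites grown in NIH/3T3 mouse fibroblasts as host cells; luminescent beta-galactosidase reporter signal from transgenic T. cruzi replicating inside host cells; inhibitors lower the luminescence signal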
[4] = NIH3T3 cell viability loss – ATP luminescence, mouse fibroblasts, counter-screen, dose response (AID 2010); format: functional, cell-based;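 also: cells exposed to compound for about 90 hours before reading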
[5] = P. falciparum Dd2 growth inhibitors, dose response, SYBR Green, cherry-picked samples (AID 1159567); format: functional, cell-based
[6] = luciferase reporter signal suppression in cells – H4 neuroglioma cells, luminescence, dose response (AID 1990); format: functional, cell-based
[7] = tested on: Streptococcus sp. 'group A'; test: Streptococcus pyogenes SK(-)GAS viability under kanamycin – luminescence, BacTiterGlo, confirmation, counter-screen for streptokinase expression inhibitor project, dose response (AID 1900); format: functional, organism-based
[8] = Luminescence Cell-Based Dose Response HTS to Identify Inhibitors of 5'UTR Stem-Loop Driven Prion Protein mRNA Translation in H4 Neuroglioblastoma Cells. [Related pubchem assays: 1827 (Project Summary), 1813 (Primary HTS)]; format: functional
[9] = alpha-synuclein stem-loop luciferase translation blockers – H4 neuroglioma cells, luminescence, confirmation (AID 1988); format: functional, cell-based
Streptokinase A = target: T3, Streptokinase A (Streptococcus pyogenes serotype M1, UniProt P10520); test: viability-normalized secreted streptokinase activity reduction – plasminogen activation absorbance, OD405, dose response (AID 1914); format: functional, Streptococcus pyogenes M1 GAS;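 also: secreted streptokinase activity via plasminogen activation per viability signal from cell pellet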
T3 sequence (P10520 whole entry): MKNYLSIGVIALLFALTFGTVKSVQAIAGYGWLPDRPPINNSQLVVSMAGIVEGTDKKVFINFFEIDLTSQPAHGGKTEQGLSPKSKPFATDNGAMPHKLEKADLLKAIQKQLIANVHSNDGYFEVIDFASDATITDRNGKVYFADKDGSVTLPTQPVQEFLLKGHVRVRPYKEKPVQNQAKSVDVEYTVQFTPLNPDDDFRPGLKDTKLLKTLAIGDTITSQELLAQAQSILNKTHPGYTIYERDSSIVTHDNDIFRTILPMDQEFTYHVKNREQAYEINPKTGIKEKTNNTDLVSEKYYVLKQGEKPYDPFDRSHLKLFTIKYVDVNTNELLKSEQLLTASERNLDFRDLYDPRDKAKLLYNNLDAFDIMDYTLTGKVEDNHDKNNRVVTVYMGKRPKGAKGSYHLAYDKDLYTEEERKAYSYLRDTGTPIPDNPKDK

Streptococcus = test: GAS UMAA2166 growth inhibition – luminescence, BacTiterGlo, counter-screen for streptokinase expression inhibitor project, dose response (AID 1915); format: functional, organism-based;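 also: potency for reduction of bacterial viability or growth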
[10] = target: T4, Replicative DNA helicase DnaB (Mycobacterium tuberculosis, UniProt P9WMR3); test: DnaB intein splicing inhibitors, dose response, biochemical, cell-free fluorescence (AID 449749); format: functional
T4 sequence (P9WMR3 whole entry): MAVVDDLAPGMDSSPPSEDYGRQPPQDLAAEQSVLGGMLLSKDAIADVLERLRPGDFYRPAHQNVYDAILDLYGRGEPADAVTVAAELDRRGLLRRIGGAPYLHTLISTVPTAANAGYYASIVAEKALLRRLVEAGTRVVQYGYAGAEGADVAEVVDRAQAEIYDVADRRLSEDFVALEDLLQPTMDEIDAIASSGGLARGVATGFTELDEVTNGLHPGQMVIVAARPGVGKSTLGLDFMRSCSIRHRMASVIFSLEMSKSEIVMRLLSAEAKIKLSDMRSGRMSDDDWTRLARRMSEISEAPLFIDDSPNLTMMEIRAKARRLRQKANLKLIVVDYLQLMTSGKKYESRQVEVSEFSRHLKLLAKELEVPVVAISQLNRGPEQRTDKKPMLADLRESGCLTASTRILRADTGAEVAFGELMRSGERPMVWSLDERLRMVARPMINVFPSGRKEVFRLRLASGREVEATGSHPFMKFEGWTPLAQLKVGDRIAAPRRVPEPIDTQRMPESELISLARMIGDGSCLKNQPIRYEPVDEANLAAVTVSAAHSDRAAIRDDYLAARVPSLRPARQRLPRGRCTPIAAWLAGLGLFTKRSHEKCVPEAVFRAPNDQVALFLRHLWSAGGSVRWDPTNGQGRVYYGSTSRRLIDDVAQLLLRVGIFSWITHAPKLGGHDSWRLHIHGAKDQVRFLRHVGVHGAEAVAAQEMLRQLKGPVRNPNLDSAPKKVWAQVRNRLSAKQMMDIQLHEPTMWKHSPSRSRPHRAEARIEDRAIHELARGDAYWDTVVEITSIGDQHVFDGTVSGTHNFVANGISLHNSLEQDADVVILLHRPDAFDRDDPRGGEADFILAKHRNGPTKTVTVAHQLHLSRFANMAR

[11] = target: Heat shock protein HSP 90-alpha (Homo sapiens, UniProt P07900); format: functional, organism-based
Protein RecA = target: T5, Protein RecA (Mycobacterium tuberculosis, UniProt P9WHJ3); test: Fluorescence Cell-Free Homogeneous Dose Retest to Identify Inhibitors of RecA-Intein Splicing Activity. [Related pubchem assays (depositor defined):AID2097, AID2223, AID489010, AID492950]; format: functional
T5 sequence (P9WHJ3 whole entry): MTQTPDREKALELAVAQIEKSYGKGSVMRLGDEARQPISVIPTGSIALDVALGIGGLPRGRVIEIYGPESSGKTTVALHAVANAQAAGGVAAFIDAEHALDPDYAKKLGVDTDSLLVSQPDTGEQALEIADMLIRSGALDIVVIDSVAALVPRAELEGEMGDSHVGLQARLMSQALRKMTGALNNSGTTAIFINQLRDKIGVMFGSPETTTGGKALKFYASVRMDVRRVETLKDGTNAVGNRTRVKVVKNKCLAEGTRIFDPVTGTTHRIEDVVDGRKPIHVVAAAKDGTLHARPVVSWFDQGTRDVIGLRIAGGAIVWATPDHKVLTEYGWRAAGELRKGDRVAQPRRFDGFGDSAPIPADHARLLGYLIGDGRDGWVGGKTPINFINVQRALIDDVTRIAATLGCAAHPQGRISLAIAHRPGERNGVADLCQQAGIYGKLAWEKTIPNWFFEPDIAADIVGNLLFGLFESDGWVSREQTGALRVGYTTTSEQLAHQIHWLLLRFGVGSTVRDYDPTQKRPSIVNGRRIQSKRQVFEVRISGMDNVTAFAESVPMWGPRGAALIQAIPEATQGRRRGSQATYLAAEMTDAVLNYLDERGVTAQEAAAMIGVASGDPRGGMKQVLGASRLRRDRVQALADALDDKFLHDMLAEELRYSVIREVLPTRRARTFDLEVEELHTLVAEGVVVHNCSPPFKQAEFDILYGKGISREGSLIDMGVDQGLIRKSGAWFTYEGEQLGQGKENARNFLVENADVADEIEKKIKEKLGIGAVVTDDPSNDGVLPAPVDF

INS1 = test: INS-1E survival protection against cytokine death – cell-based, luminescence, retest, dose response (AID 449756); format: functional; conditions: Rattus norvegicus;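 also: cell death triggered by IL-1 beta plus TNF-alpha plus IFN-gamma mixture; protective hits raise ATP signal compared with cytokine alone wells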
[12] = viability of PTEN-deleted HCT116 cells – cell-based, HCT116 PTEN knockout, dose response (AID 1047); format: functional;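 also: HCT116 colon tumor cells with PTEN knocked out; cells exposed to compound for 60 hours before readout; potency for loss of cell viability measured by luminescence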
[13] = viability of HCT116 lacking mutant beta-catenin – cell-based, human colon tumor, dose response (AID 1045); format: functional;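 also: HCT116 colon tumor cells with beta catenin knocked out; cells exposed to compound for 60 hours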
[14] = viability of uninfected HEp-2 cells – cell-based, HTS, cytotoxicity control for RSV inhibitor project, dose response (AID 2410); format: functional; conditions: human respiratory syncytial virus
[15] = Luminescence Cell-Based Dose Retest to Confirm Inhibitors of Cancer Stem Cells. [Related pubchem assays (depositor defined):AID2717, AID2721]; format: functional; conditions: Homo sapiens
Cytochrome P450 2C9 = Cytochrome P450 2C9 (Homo sapiens, UniProt P11712)
Fatty acid synthase [16] = target: T6, Fatty acid synthase (Homo sapiens, UniProt P49327); test: inhibition of human FAS-TE enzyme activity – biochemical, endpoint fluorescence intensity, uHTS hits, dose response (AID 624327); format: functional;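 also: fluorescence from hydrolysis of an O-methyl fluorescein acyl ester substrate by the enzyme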
Fatty acid synthase [17] = target: T6, Fatty acid synthase; test: inhibition of human FAS-TE enzyme activity – biochemical, kinetic fluorescence intensity, dose response (AID 624326); format: functional;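 also: rate of fluorescence rise from hydrolysis of a fluorogenic O-methyl fluorescein ester substrate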

T6 sequence (P49327 whole entry): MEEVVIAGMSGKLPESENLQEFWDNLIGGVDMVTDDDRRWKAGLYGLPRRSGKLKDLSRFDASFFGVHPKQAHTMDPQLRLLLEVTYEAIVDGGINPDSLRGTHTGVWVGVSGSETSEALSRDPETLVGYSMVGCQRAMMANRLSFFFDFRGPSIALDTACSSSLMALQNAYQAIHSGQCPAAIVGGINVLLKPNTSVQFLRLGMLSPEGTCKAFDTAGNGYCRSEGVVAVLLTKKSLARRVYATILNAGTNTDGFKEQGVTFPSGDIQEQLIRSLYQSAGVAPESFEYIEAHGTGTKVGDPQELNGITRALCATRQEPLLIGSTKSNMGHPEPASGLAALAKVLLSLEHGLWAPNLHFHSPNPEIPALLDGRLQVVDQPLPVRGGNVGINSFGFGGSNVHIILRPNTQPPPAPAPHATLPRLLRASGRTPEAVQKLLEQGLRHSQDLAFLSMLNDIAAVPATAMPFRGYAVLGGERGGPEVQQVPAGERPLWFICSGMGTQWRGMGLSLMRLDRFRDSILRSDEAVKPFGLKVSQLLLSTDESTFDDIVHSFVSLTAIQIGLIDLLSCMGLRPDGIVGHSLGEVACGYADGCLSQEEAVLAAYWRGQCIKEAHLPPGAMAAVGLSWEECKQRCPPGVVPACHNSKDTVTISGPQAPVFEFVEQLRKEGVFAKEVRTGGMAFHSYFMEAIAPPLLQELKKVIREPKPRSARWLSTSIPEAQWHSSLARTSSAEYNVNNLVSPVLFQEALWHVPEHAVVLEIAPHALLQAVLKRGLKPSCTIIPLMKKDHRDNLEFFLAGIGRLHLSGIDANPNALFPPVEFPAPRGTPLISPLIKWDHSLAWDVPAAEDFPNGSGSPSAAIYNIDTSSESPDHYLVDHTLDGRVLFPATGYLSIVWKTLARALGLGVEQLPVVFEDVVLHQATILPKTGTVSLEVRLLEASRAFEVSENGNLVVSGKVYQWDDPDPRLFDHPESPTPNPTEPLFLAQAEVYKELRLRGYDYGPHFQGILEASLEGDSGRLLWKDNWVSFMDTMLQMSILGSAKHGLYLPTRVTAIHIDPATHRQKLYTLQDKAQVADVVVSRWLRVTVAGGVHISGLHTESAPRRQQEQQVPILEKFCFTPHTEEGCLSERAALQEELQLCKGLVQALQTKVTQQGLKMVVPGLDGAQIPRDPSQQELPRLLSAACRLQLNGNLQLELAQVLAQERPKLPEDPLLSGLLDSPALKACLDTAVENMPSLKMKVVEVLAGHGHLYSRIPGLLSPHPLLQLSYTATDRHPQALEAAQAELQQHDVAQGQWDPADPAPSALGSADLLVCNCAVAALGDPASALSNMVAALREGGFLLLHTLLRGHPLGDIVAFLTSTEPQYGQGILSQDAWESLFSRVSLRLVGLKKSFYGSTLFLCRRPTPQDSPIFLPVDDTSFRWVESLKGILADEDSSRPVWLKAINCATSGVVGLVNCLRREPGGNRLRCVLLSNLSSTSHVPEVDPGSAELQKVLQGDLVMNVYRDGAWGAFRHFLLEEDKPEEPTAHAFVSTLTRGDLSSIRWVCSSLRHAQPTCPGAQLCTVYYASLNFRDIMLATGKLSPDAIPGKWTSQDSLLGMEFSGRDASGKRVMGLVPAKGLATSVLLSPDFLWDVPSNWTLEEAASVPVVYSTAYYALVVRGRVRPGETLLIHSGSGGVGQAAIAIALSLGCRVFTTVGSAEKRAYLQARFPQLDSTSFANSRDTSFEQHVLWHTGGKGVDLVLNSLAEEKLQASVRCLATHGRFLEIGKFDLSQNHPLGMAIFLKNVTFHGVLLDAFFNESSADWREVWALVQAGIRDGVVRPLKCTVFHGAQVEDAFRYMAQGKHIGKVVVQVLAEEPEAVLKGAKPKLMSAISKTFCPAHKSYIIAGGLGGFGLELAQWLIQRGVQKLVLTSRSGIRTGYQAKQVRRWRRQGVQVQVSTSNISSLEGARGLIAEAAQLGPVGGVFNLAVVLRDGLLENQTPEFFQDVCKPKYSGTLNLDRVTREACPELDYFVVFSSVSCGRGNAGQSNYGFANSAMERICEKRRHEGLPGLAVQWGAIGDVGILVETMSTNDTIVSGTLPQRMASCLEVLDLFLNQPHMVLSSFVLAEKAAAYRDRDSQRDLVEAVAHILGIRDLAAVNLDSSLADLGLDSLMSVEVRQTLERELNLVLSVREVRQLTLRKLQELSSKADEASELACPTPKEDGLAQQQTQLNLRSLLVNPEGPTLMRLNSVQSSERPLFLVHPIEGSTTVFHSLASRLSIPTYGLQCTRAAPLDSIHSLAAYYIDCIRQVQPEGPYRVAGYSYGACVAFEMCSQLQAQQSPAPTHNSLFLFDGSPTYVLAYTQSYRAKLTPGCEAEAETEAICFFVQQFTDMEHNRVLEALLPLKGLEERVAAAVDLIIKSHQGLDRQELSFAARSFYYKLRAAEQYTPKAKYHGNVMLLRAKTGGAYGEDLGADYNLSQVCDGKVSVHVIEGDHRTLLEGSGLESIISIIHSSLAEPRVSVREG
Chain of Cytochrome P450 2C9 (P11712 whole entry): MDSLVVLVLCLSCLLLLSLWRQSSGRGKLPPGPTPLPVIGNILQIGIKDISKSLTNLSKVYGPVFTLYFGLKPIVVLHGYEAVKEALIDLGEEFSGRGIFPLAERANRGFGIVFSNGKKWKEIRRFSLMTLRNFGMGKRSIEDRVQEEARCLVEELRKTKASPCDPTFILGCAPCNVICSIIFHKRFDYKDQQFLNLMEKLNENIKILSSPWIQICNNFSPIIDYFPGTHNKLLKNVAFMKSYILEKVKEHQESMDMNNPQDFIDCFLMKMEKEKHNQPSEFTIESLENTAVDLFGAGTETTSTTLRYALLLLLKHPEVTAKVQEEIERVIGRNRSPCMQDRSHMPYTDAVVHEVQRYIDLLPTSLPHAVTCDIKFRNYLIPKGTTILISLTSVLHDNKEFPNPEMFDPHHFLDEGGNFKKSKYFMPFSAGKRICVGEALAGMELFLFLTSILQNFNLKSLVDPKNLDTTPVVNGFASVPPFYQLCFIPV

With `N#C/C(=C/c1ccc(CNS(=O)(=O)c2ccccc2)o1)C(=O)NCc1ccccc1` the EC50 [1] was > 300 µM (not active) and the EC50 [2] was > 300 µM (not active).

With `Cc1cccn2c(=O)c3cc(C(=O)NC4CCCCC4)c(=N)n(Cc4ccccc4)c3nc12` the EC50 [1] was 25.9 µM (active), the EC50 [2] was 8.47 µM (active) and the EC50 [3] was 1.63 µM (active). For the same compound, the EC50 [4] was > 60 µM (not active).

In the case of `C[C@H](CO)N1C[C@H](C)[C@H](CN(C)S(=O)(=O)c2cccs2)Oc2ccc(NC(=O)Cc3cn(C)c4ccccc34)cc2C1=O`, the AC50 [5] was 5.02 µM (active).

In the case of `O=Nc1c(O)c2ccccc2c2ccccc12`, the EC50 [6] was 8.1 µM (active), the EC50 [7] was 1.68 µM (active) and the EC50 [8] was > 120 µM (not active). The EC50 [9] was > 120 µM (not active), the EC50 (Streptokinase A) was 7.11 µM (active) and the EC50 (Streptococcus) was 10.8 µM (active). The AC50 [10] was 4.39 µM (active), the AC50 [11] was 1.03 µM (active) and the EC50 (Protein RecA) was 5.3 µM (active). For the same compound, the AC50 (INS1) was 7.86 µM (active).

In the case of `COc1ccc2c3c([nH]c2c1)[C@@H](CO)N(Cc1nccs1)CC31CCN(Cc2nccs2)CC1`, the AC50 [5] was 4.94 µM (active).

In the case of `O=C(c1c[nH]c(C(=O)C(Cl)(Cl)Cl)c1)c1ccccc1Cl`, the EC50 [12] was 26.5 µM (active), the EC50 [13] was 24.9 µM (active) and the AC50 [10] was 7.85 µM (active). For the same compound, the EC50 (Protein RecA) was 6.27 µM (active).

With `COc1ccc(/N=C/c2cc3c(cc2O)OC(N)=C(C#N)C3c2ccccc2)cc1` (stereo not drawn) the CC50 [14] was 8.02 µM (active), the EC50 [1] was > 300 µM (not active) and the EC50 [2] was > 300 µM (not active).

With `O=C(CCC(=O)CCN1CCCCC1)CCN1CCCCC1` the EC50 [12] was 33.1 µM (active) and the EC50 [13] was 32.6 µM (active).

For `COc1cc(/C=N/O)cc(Br)c1OCc1cccc(Cl)c1`, the AC50 [15] was 5.56 µM (active), the AC50 [11] was 7.99 µM (active) and the AC50 (Cytochrome P450 2C9) was “inconclusive”.

In the case of `COc1cccc(-c2nc(Oc3cc(C)cc(C)c3)c3ccccc3n2)c1O`, the EC50 [12] was 8.12 µM (active) and the EC50 [13] was 13.7 µM (active).

In the case of `O=C1C=CC(=O)C2C1C1(Cl)C(Cl)=C(Cl)C2(Cl)C1(Cl)Cl` (stereo not drawn), the AC50 [11] was 7.83 µM (active), the IC50 (Fatty acid synthase [16]) was 14.8 µM (active) and the IC50 (Fatty acid synthase [17]) was 13.8 µM (active).

For `COc1ccc(S(=O)(=O)C(C#N)c2nc3ccccc3nc2N2CCC(C)CC2)cc1` (stereo not drawn), the EC50 [1] was 6.4 µM (active) and the EC50 [2] was 8.74 µM (active).

For `C/C=C/c1ccc2n(c1=O)C[C@@H]1[C@@H](CO)[C@H](C(=O)N3CCC(Cc4ccccc4)CC3)N(CCC)[C@H]21.C/C=C\c1ccc2n(c1=O)C[C@@H]1[C@@H](CO)[C@H](C(=O)N3CCC(Cc4ccccc4)CC3)N(CCC)[C@H]21`, the AC50 [5] was 4.32 µM (active).
